Entries after “also recorded” stand apart in the source; their conditions may differ. Where a name gives a salt, the structure may show the parent alone. Read-outs that look alike come from different tables or passages of the source.
What was measured:
LUHMES and dLUHMES cells [1] = system: LUHMES and dLUHMES cells
[2] = system: Caspase 3/7 activity in SH-SY5Y and dSH-SY5Y cells; assay: Caspase-Glo 3/7 luminescence assay, 24 h; format: cell-based
[3] = system: Caspase 3/7 activity in LUHMES and dLUHMES cells; assay: Caspase-Glo 3/7 luminescence assay, 24 h; format: cell-based, human
[4] = system: HEK293, SH-SY5Y, SK-N-SH, or N2a; conditions: cited from earlier work
[5] = system: SH-SY5Y and dSH-SY5Y cells
[6] = system: SH-SY5Y and dSH-SY5Y cells; assay: qPCR of apoptosis-pathway genes after 6 h toxicant treatment; format: cell-based, human; conditions: for BAG3 expression: both SH-SY5Y and dSH-SY5Y
[7] = system: SH-SY5Y, LUHMES, NSC, dSH-SY5Y, dLUHMES, dNSC
NSC and dNSC cells = conditions: 24 h exposure, [ATP], 0.78 to 100 µM
LUHMES and dLUHMES cells [8] = conditions: LUHMES, 1.56 µM RSR, 6 h; samples lost
[9] = 24 h exposure, 0.78 to 100 µM, vs SH-SY5Y/dSH-SY5Y and NSC/dNSC
[10] = dLUHMES, 24 h, threshold […] above control
[11] = 24 h exposure, [ATP], 0.78 to 100 µM
[12] = SH-SY5Y and dSH-SY5Y (either cell type), MAP 12.5 µM, DTCM 10 µM, MALG 1.56 µM, MHG 1.56 µM, RSR 10 µM
[13] = MAP 12.5 µM, DTCM 10 µM, MALG 1.56 µM, MHG 1.56 µM, RSR 10 µM
[14] = SH-SY5Y and dSH-SY5Y (either cell type), MAP 12.5 µM, MALG 1.56 µM, MHG 1.56 µM, RSR 10 µM

Nc1ccn([C@@H]2O[C@H](CO)[C@@H](O)[C@@H]2O)c(=O)n1 [ARAC, Cytosine arabinoside]
relative cytotoxic sensitivity of LUHMES versus dLUHMES cells (LUHMES and dLUHMES cells [1]): LUHMES cells were more sensitive than dLUHMES cells | cytotoxic sensitivity ([ATP] IC50) of LUHMES and/or dLUHMES relative to the other cell lines (LUHMES and dLUHMES cells [1]; [9]): more sensitive than the other cell lines | peak Caspase 3/7 activities, ranking among compounds [2]: highest activities | increase of Caspase 3/7 activity in dLUHMES [3, 10]: but not dLUHMES

O=C1C2CC=CCC2C(=O)N1SC(Cl)(Cl)Cl (centres unmarked) [CAP, Captan]
cytotoxic sensitivity ([ATP] IC50) of LUHMES and/or dLUHMES relative to the other cell lines (LUHMES and dLUHMES cells [1]; [9]): more sensitive than the other cell lines | relative cytotoxic sensitivity of LUHMES versus dLUHMES cells (LUHMES and dLUHMES cells [1]; [11]): dLUHMES cells were markedly more sensitive than LUHMES cells | In vitro neural selectivity: neural-derived cell lines 10-fold more sensitive (10-fold lower IC50) than the median of the other 9 cell lines [4]: SH-SY5Y ([Huang et al., 2008], [Xia et al., 2008]) | cytotoxic sensitivity of dSH-SY5Y cells relative to SH-SY5Y cells [5, 11]: slightly more sensitive

COc1cc2c(c(OC)c1OC)-c1ccc(OC)c(=O)cc1[C@@H](NC(C)=O)CC2 [CLCH, Colchicine]
cytotoxic sensitivity ([ATP] IC50) of LUHMES and/or dLUHMES relative to the other cell lines (LUHMES and dLUHMES cells [1]): more sensitive than the other cell lines | In vitro neural selectivity: neural-derived cell lines 10-fold more sensitive (10-fold lower IC50) than the median of the other 9 cell lines [4]: HEK293, SH-SY5Y, SK-N- SH, N2a ([Huang et al., 2008], [Xia et al., 2008])

O=C(O)CCCc1ccc(N(CCCl)CCCl)cc1 [CLM, Chlorambucil]
relative cytotoxic sensitivity of LUHMES versus dLUHMES cells (LUHMES and dLUHMES cells [1]): LUHMES cells were more sensitive than dLUHMES cells | cytotoxic sensitivity ([ATP] IC50) of LUHMES and/or dLUHMES relative to the other cell lines (LUHMES and dLUHMES cells [1]; [9]): more sensitive than the other cell lines | In vitro neural selectivity: neural-derived cell lines 10-fold more sensitive (10-fold lower IC50) than the median of the other 9 cell lines [4]: selective toxicity to SH-SY5Y cells; also recorded: SH-SY5Y, ([Huang et al., 2008], [Xia et al., 2008]) | peak Caspase 3/7 activities, ranking among compounds [2]: highest activities | increase of Caspase 3/7 activity in dLUHMES [3, 10]: but not dLUHMES

COc1cccc2c1C(=O)c1c(O)c3c(c(O)c1C2=O)C[C@@](O)(C(C)=O)C[C@@H]3O[C@H]1C[C@H](N)[C@H](O)[C@H](C)O1 [DAUN, Daunorubicin]
In vitro neural selectivity: neural-derived cell lines 10-fold more sensitive (10-fold lower IC50) than the median of the other 9 cell lines [4]: HEK293, SH-SY5Y, SK-N- SH, N2a ([Huang et al., 2008], [Xia et al., 2008]) | peak Caspase 3/7 activities, ranking among compounds [2]: highest activities

C[C@H]1O[C@@H](O[C@H]2[C@@H](O)C[C@H](O[C@H]3[C@@H](O)C[C@H](O[C@H]4CC[C@@]5(C)[C@H](CC[C@@H]6[C@@H]5C[C@@H](O)[C@]5(C)[C@@H](C7=CC(=O)OC7)CC[C@]65O)C4)O[C@@H]3C)O[C@@H]2C)C[C@H](O)[C@@H]1O [DGX, Digoxin]
cytotoxic sensitivity ([ATP] IC50) of LUHMES and/or dLUHMES relative to the other cell lines (LUHMES and dLUHMES cells [1]): more sensitive than the other cell lines

COc1cccc2c1C(=O)c1c(O)c3c(c(O)c1C2=O)C[C@@](O)(C(=O)CO)C[C@@H]3O[C@H]1C[C@H](N)[C@H](O)[C@H](C)O1 [DOX, Doxorubicin]
In vitro neural selectivity: neural-derived cell lines 10-fold more sensitive (10-fold lower IC50) than the median of the other 9 cell lines [4]: HEK293, SH-SY5Y, SK-N- SH ([Huang et al., 2008], [Xia et al., 2008]) | peak Caspase 3/7 activities, ranking among compounds [2]: highest activities

N#CSCSC#N [DTCM, Dithiocyanatomethan]
cytotoxic sensitivity ([ATP] IC50) of LUHMES and/or dLUHMES relative to the other cell lines (LUHMES and dLUHMES cells [1]; [9]): more sensitive than the other cell lines | relative cytotoxic sensitivity of LUHMES versus dLUHMES cells (LUHMES and dLUHMES cells [1]; [11]): dLUHMES cells were markedly more sensitive than LUHMES cells | In vitro neural selectivity: neural-derived cell lines 10-fold more sensitive (10-fold lower IC50) than the median of the other 9 cell lines [4]: SH-SY5Y ([Huang et al., 2008], [Xia et al., 2008]) | BIRC5 gene expression [6, 12]: down-regulation | BIRC3 gene expression ([6]; SH-SY5Y, DTCM 10 µM): down-regulation | FAS mRNA ([6]; SHSY5Y, DTCM 10 µM): down-regulated | BAG3 expression [6, 13]: increased expression | BIRC3 gene expression ([6]; dSH-SY5Y, DTCM 10 µM): did not respond detectably | FASL mRNA ([6]; dSH-SY5Y, DTCM 10 µM): unchanged | cytotoxic sensitivity of dSH-SY5Y cells relative to SH-SY5Y cells [5, 11]: slightly more sensitive | increase of Caspase 3/7 activity in dLUHMES [3, 10]: but not dLUHMES

O=c1c(-c2ccc(O)cc2)coc2cc(O)cc(O)c12 [GEN, Genistein]
increase of Caspase 3/7 activity in dLUHMES [3, 10]: but not dLUHMES

CN(C)c1ccc(C(=C2C=CC(=[N+](C)C)C=C2)c2ccccc2)cc1.CN(C)c1ccc(C(=C2C=CC(=[N+](C)C)C=C2)c2ccccc2)cc1.O=C(O)C(=O)O.O=C([O-])C(=O)O.O=C([O-])C(=O)O [MALG, Malachite green oxalate]
peak Caspase 3/7 activities, ranking among compounds [2]: highest activities | cytotoxic sensitivity of LUHMES, dLUHMES, NSC and dNSC compared with each other [7]: comparable sensitivity | BIRC5 gene expression [6, 12]: down-regulation | BIRC3 gene expression [6, 14]: down-regulation | BAG3 expression [6, 13]: increased expression

[CH3][Hg+] [MHG, Methyl mercury (II)]
BIRC5 gene expression [6, 12]: down-regulation | BIRC3 gene expression [6, 14]: down-regulation | BAG3 expression [6, 13]: increased expression

Cc1ccc2c(c1[N+](=O)[O-])C(=O)c1ccccc1C2=O [MNA, 2-Methyl-1-nitroanthraquinone]
cytotoxic sensitivity ([ATP] IC50) of LUHMES and/or dLUHMES relative to the other cell lines (LUHMES and dLUHMES cells [1]): more sensitive than the other cell lines | In vitro neural selectivity: neural-derived cell lines 10-fold more sensitive (10-fold lower IC50) than the median of the other 9 cell lines ([4]; qHTS cytotoxicity, ref Huang et al., 2008, Xia et al., 2008): HEK293 ([Huang et al., 2008], [Xia et al., 2008]) | increase of Caspase 3/7 activity in dLUHMES [3, 10]: but not dLUHMES

Cc1c(O)cccc1C(=O)N[C@@H](CSc1ccccc1)[C@H](O)CN1C[C@H]2CCCC[C@H]2C[C@H]1C(=O)NC(C)(C)C [NLF, Nelfinavir]
cytotoxic sensitivity ([ATP] IC50) of LUHMES and/or dLUHMES relative to the other cell lines (LUHMES and dLUHMES cells [1]): more sensitive than the other cell lines | In vitro neural selectivity: neural-derived cell lines 10-fold more sensitive (10-fold lower IC50) than the median of the other 9 cell lines [4]: SH-SY5Y ([Huang et al., 2008], [Xia et al., 2008])

CCCCCCCCn1sccc1=O [OTZ, 2-octyl-4-isothiazolin-3-one]
relative cytotoxic sensitivity of NSC versus dNSC (NSC and dNSC cells): NSC more sensitive than dNSC | cytotoxic sensitivity ([ATP] IC50) of LUHMES and/or dLUHMES relative to the other cell lines (LUHMES and dLUHMES cells [1]): more sensitive than the other cell lines | In vitro neural selectivity: neural-derived cell lines 10-fold more sensitive (10-fold lower IC50) than the median of the other 9 cell lines [4]: SH-SY5Y ([Huang et al., 2008], [Xia et al., 2008])

C=C(C)[C@H]1Cc2c(ccc3c2O[C@@H]2COc4cc(OC)c(OC)cc4[C@@H]2C3=O)O1 [ROTE, Rotenone]
relative cytotoxic sensitivity of LUHMES versus dLUHMES cells (LUHMES and dLUHMES cells [1]): LUHMES cells were more sensitive than dLUHMES cells | cytotoxic sensitivity ([ATP] IC50) of LUHMES and/or dLUHMES relative to the other cell lines (LUHMES and dLUHMES cells [1]; [9]): more sensitive than the other cell lines | cytotoxic sensitivity of dSH-SY5Y cells relative to SH-SY5Y cells [5]: more sensitive

c1cc(OCC2CO2)cc(OCC2CO2)c1 (centres unmarked) [RSR, Resorcinol diglycidyl ether]
relative cytotoxic sensitivity of NSC versus dNSC (NSC and dNSC cells): the converse was true | cytotoxic sensitivity ([ATP] IC50) of LUHMES and/or dLUHMES relative to the other cell lines (LUHMES and dLUHMES cells [1]; [9]): more sensitive than the other cell lines | In vitro neural selectivity: neural-derived cell lines 10-fold more sensitive (10-fold lower IC50) than the median of the other 9 cell lines [4]: SH-SY5Y ([Huang et al., 2008], [Xia et al., 2008]) | peak Caspase 3/7 activities, ranking among compounds [2]: highest activities | BIRC5 gene expression [6, 12]: did not respond detectably | BIRC3 gene expression [6, 14]: did not respond detectably | BAG3 expression [6, 13]: weakly | cytotoxicity seen in samples treated for qPCR (LUHMES and dLUHMES cells [8]): excessive cytotoxicity

[CH3][Sn]([CH3])([CH3])[Cl] [TMT, Trimethyltin chloride]
cytotoxic sensitivity ([ATP] IC50) of LUHMES and/or dLUHMES relative to the other cell lines (LUHMES and dLUHMES cells [1]; [9]): more sensitive than the other cell lines | relative cytotoxic sensitivity of LUHMES versus dLUHMES cells (LUHMES and dLUHMES cells [1]; [11]): dLUHMES cells were markedly more sensitive than LUHMES cells

CC[C@]1(O)C[C@H]2CN(CCc3c([nH]c4ccccc34)[C@@](C(=O)OC)(c3cc4c(cc3OC)N(C=O)[C@H]3[C@@](O)(C(=O)OC)[C@H](OC(C)=O)[C@]5(CC)C=CCN6CC[C@]43[C@@H]65)C2)C1 [VIN, Vincristine sulfate]
cytotoxic sensitivity ([ATP] IC50) of LUHMES and/or dLUHMES relative to the other cell lines (LUHMES and dLUHMES cells [1]): more sensitive than the other cell lines

Aflatoxin B1
cytotoxic sensitivity ([ATP] IC50) of LUHMES and/or dLUHMES relative to the other cell lines (LUHMES and dLUHMES cells [1]): more sensitive than the other cell lines | relative cytotoxic sensitivity of LUHMES versus dLUHMES cells (LUHMES and dLUHMES cells [1]): LUHMES cells were more sensitive than dLUHMES cells | increase of Caspase 3/7 activity in dLUHMES [3]: but not dLUHMES

Sodium dichromate [CR2]
In vitro neural selectivity: neural-derived cell lines 10-fold more sensitive (10-fold lower IC50) than the median of the other 9 cell lines [4]: SH-SY5Y ([Huang et al., 2008], [Xia et al., 2008])

Tunicamycin [TUNC]
cytotoxic sensitivity ([ATP] IC50) of LUHMES and/or dLUHMES relative to the other cell lines (LUHMES and dLUHMES cells [1]; [9]): more sensitive than the other cell lines

Ziram
In vitro neural selectivity: neural-derived cell lines 10-fold more sensitive (10-fold lower IC50) than the median of the other 9 cell lines [4]: SH-SY5Y ([Huang et al., 2008], [Xia et al., 2008])
